Reference: US20090105225A1, “2-Substituted 4-Benzylphthalazinone Derivatives as Histamine H1 and H3 Antagonists” (GLAXO GROUP LIMITED, priority 2006, published 2009)
Counter-ions that a name gives are not always drawn.

Key:
[1] = CNS penetration (intravenous bolus or steady-state infusion, brain and blood concentration); format: in vivo, rat; details: compared with azelastine
Experimental: Compounds are dosed intravenously at a nominal dose level of 1 mg/kg to male CD Sprague Dawley rats. Compounds are formulated in 5% DMSO/45% PEG200/50% water. Blood samples are taken under terminal anaesthesia with isoflurane at 5 min post-dose and the brains are also removed for assessment of brain penetration. Blood samples are taken directly into heparinised tubes. Blood samples are prepared for analysis using protein precipitation and brain samples are prepared using extraction of drug from brain by homogenisation and subsequent protein precipitation. The concentration of parent drug in blood and brain extracts is determined by quantitative LC-MS/MS analysis using compound-specific mass transitions.
A loading dose of the compounds is given to male CD Sprague Dawley rats at a nominal dose level of 0.4 mg/kg. The compounds are then infused intravenously for 4 h at a nominal dose level of 0.1 mg/kg/h. Compounds are formulated in 2% DMSO/30% PEG200/68% water. Serial or terminal blood samples are taken at 0.5, 1.5, 2.5, 3, 3.5 and 4 h post dose. The final blood sample is collected under terminal anaesthesia with isoflurane and the brains are also removed for assessment of brain penetration. Blood samples are taken directly into heparinised tubes. Blood samples are prepared for analysis using protein precipitation and brain samples are prepared using extraction of drug from brain by homogenisation and subsequent protein precipitation. The concentration of parent drug in blood and brain extracts is determined by quantitative LC-MS/MS analysis using compound-specific mass transitions.

human H1 receptor = molecular target: T1, human H1 receptor (Homo sapiens, UniProt P35367); experiment: Histamine H1 functional antagonist assay (FLIPR): determination of antagonist pA2 and duration; format: cell-based; details: at one or more time points; compared with azelastine
T1 construct: expressed in transfected cells
T1 sequence (P35367 whole entry): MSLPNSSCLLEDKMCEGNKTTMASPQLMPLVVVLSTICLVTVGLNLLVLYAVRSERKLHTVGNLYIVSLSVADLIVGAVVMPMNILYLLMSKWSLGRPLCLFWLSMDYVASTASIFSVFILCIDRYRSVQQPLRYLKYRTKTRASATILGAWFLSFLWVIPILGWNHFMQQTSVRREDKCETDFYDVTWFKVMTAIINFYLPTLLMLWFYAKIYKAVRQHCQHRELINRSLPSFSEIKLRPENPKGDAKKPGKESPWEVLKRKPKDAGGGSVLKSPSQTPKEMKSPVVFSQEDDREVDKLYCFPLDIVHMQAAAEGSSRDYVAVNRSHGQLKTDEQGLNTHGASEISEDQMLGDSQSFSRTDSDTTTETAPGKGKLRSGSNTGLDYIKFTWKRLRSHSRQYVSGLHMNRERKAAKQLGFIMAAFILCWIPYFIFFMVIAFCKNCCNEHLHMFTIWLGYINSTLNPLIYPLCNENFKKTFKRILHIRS
Experimental: The human H1 receptor is cloned using known procedures described in the literature [Biochem. Biophys. Res. Commun., 201(2):894 (1994)]. Chinese hamster ovary (CHO) cells stably expressing the human H1 receptor are generated according to known procedures described in the literature [Br. J. Pharmacol., 117(6):1071 (1996)].
The histamine H1 receptor expressing CHO cells are seeded into non-coated black-walled clear bottom 96-well tissue culture plates as described above.
Following overnight culture, growth medium is removed from each well, washed with 200 μl phosphate buffered saline (PBS) and is replaced with 50 μl loading dye (250 μM Brilliant Black, 1 μM Fluo-4 diluted in Tyrodes buffer+probenecid (145 mM NaCl, 2.5 mM KCl, 10 mM HEPES, 10 mM D-glucose, 1.2 mM MgCl2, 1.5 mM CaCl2, 2.5 mM probenecid, pH adjusted to 7.40 with NaOH 1.0 M)). Cells are incubated for 45 min at 37° C. The loading buffer is removed and the cells are washed as above, and 90 μl of Tyrodes buffer+probenecid is added to each well. 10 μl of test compound, diluted to the required concentration in Tyrodes buffer+probenecid (or 10 μl Tyrodes buffer+probenecid as a control) is added to each well and the plate is incubated for 30 min at 37° C., 5% CO2.
The plates are then placed into a FLIPR™ (Molecular Devices, UK) to monitor cell fluorescence (λex=488 nm, λEM=540 nm) in the manner described in Sullivan et al., (In: Lambert D G (ed.), Calcium Signaling Protocols, New Jersey: Humana Press, 1999, 125-136) before and after the addition of 50 μl histamine over a concentration range of 1 mM-0.1 nM. The resultant concentration response curves are analysed by non-linear regression using a standard four parameter logistic equation to determine the histamine EC50, the concentration of histamine required to produce a response of 50% of the maximum response to histamine. The antagonist pA2 is calculated using the following standard equation: pA2=log(DR−1)−log [B] where DR=dose ratio, defined as EC50 antagonist-treated/EC50 control and [B]=concentration of antagonist.
To determine the antagonist duration, cells are cultured overnight in non-coated black-walled clear bottom 96-well tissue culture plates, are washed with PBS and are incubated with a concentration of antagonist chosen to give an approximate DR in the range 30-300. Following the 30 min antagonist incubation period, the cells are washed two or three times with 200 μl of PBS and then 100 μl Tyrodes buffer is added to each well to initiate antagonist dissociation. Following incubation for predetermined times, typically 30-270 min at 37° C., the cells are then washed again with 200 μl PBS and are incubated with 100 μl Tyrodes buffer containing Brilliant Black, probenecid and Fluo-4 for 45 min at 37° C., as described above. After this period, the cells are challenged with histamine in the FLIPR™ as described above. The dose ratio at each time point is used to determine the fractional H1 receptor occupancy by the following equation: fractional receptor occupancy=(DR-1)/DR. The decrease in receptor occupancy over time approximates to a straight line and is analysed by linear regression. The slope of this straight line fit is used as an index of the dissociation rate of the antagonist. The dose ratios for antagonist treated cells and for antagonist treated and washed cells at each time point are used to calculate a relative dose ratio (rel DR) which is also used as an index of antagonist duration. Antagonists with long duration of action produce rel DR values close to 1, and antagonists with short duration of action produce rel DR values that approaches the dose ratio value obtained for antagonist treatment alone.

[2] = test system: histamine-induced congestion; experiment: Intranasal histamine challenge, whole body plethysmography; format: in vivo; details: 24 hours after dosing; compared to azelastine; Guinea Pig whole body plethysmography model (FIG. 3)
Experimental: Female Dunkin-Hartley guinea pigs 150-250 g are sensitised twice daily for 5 days (week 1) with ovalbumin (OVA) and aluminium hydroxide (Al(OH)3 or Alum) in physiological saline, 25 μl/nostril. Solution is made up at 20 μg/ml OVA, 180 mg/ml Alum. During weeks 2 and 3, animals receive 25 μl/nostril of OVA (5 mg/ml) once daily. During Week 4 guinea pigs will be entered into study but are continually sensitized as per weeks 2 and 3 until the day before dosing with compound or vehicle.
Pretreatment with test compound is performed at various times prior to histamine challenge. Efficacy dose-response curves are determined 1 h after dosing whereas duration of action is studied up to 7 days post dose. Test compounds are formulated as solutions in 0.9% sterile saline or suspensions in 0.9% sterile saline/tween80. […]
After the stipulated pre-dose time has been reached, guinea pigs are re-anaesthetised with isoflurane and dosed with either 15 mM histamine or phosphate-buffered saline (PBS), (25 μl per nostril). […] Data are analysed using ANOVA with post-hoc Fishers LSD test (general linear models, Statistica®) and finally Hochberg adjustment. Inhibition of histamine-induced congestion is determined by statistically significant differences between the mean responses of compound pre-treated groups compared to the vehicle pre-treated, histamine-challenged group.

O=c1c2ccccc2c(Cc2ccc(Cl)cc2)nn1C1CCCN(CCCOc2ccc3c(c2)CCN(C2CCC2)CC3)CC1 (centres unmarked) [Example 16, 4-[(4-Chlorophenyl)methyl]-2-(1-{3-[(3-cyclobutyl-2,3,4,5-tetrahydro-1H-3-benzazepin-7-yl)oxy]propyl}hexahydro-1H-azepin-4-yl)-1(2H)-phthalazinone Formate Salt]
CNS penetration [1]: comparable CNS penetration to azelastine

O=c1c2ccccc2c(Cc2ccc(Cl)cc2)nn1C[C@H]1CCCN1CCCCc1ccc(OCCCN2CCCCCC2)cc1 [Example 24, 4-[(4-Chlorophenyl)methyl]-2-({(2R)-1-[4-(4-{[3-(hexahydro-1H-azepin-1-yl)propyl]oxy}phenyl)butyl]-2-pyrrolidinyl}methyl)-1(2H)-phthalazinone Free Base]
CNS penetration [1]: lower CNS penetration than azelastine | duration of action in the histamine H1 functional antagonist assay (human H1 receptor): significantly longer duration of action than azelastine | inhibition of nasal congestion [2]: statistically significant inhibition of nasal congestion

O=c1c2ccncc2c(Cc2ccc(Cl)cc2)nn1C[C@H]1CCCN1CCCCc1ccc(OCCCN2CCCCCC2)cc1 [Example 23]
duration of action in the histamine H1 functional antagonist assay (human H1 receptor): longer duration of action than azelastine

COc1ccc(Cc2nn(C[C@H]3CCCN3CCCCc3ccc(OCCCN4CCCCCC4)cc3)c(=O)c3ccccc23)cc1 [Example 7, 2-({(2R)-1-[4-(4-{[3-(Hexahydro-1H-azepin-1-yl)propyl]oxy}phenyl)butyl]-2-pyrrolidinyl}methyl)-4-{[4-(methyloxy)phenyl]methyl}-1(2H)-phthalazinone Diformate]
CNS penetration [1]: lower CNS penetration than azelastine | duration of action in the histamine H1 functional antagonist assay (human H1 receptor): longer duration of action than azelastine

O=c1c2ccccc2c(Cc2ccc(Cl)cc2)nn1C[C@H]1CCCN1CCCOc1ccc2c(c1)CCN(C1CCC1)CC2 [Example 15, 4-[(4-Chlorophenyl)methyl]-2-[((2R)-1-{3-[(3-cyclobutyl-2,3,4,5-tetrahydro-1H-3-benzazepin-7-yl)oxy]propyl}-2-pyrrolidinyl)methyl]-1(2H)-phthalazinone]
duration of action in the histamine H1 functional antagonist assay (human H1 receptor): longer duration of action than azelastine

O=c1c2ccccc2c(Cc2ccc(O)cc2)nn1C[C@H]1CCCN1CCCCc1ccc(OCCCN2CCCCCC2)cc1 [Example 8, 2-({(2R)-1-[4-(4-{[3-(Hexahydro-1H-azepin-1-yl)propyl]oxy}phenyl)butyl]-2-pyrrolidinyl}methyl)-4-[(4-hydroxyphenyl)methyl]-1(2H)-phthalazinone]
duration of action in the histamine H1 functional antagonist assay (human H1 receptor): longer duration of action than azelastine

O=c1c2ccccc2c(Cc2ccc(F)cc2)nn1C[C@H]1CCCN1CCCCc1ccc(OCCCN2CCCCCC2)cc1 [Example 9, 4-[(4-Fluorophenyl)methyl]-2-({(2R)-1-[4-(4-{[3-(hexahydro-1H-azepin-1-yl)propyl]oxy}phenyl)butyl]-2-pyrrolidinyl}methyl)-1(2H)-phthalazinone]
duration of action in the histamine H1 functional antagonist assay (human H1 receptor): longer duration of action than azelastine

O=C(NCCN1CCCC(n2nc(Cc3ccc(Cl)cc3)c3ccccc3c2=O)CC1)c1ccc2c(c1)CCN(C1CCC1)CC2 (centres unmarked) [Example 18, N-(2-{4-[4-[(4-Chlorophenyl)methyl]-1-oxo-2(1H)-phthalazinyl]hexahydro-1H-azepin-1-yl}ethyl)-3-cyclobutyl-2,3,4,5-tetrahydro-1H-3-benzazepine-7-carboxamide Diformate Salt]
duration of action in the histamine H1 functional antagonist assay (human H1 receptor): longer duration of action than azelastine
